# Reference: ChEMBL document CHEMBL1201862, “PubChem BioAssay data set” (2004)
#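 Cells were grown in 96-well plates and exposed to each compound for 48 hours at five concentrations; endpoints were interpolated linearly between bracketing concentrations, or set to the highest concentration if not reached. Here, GI50 denotes the concentration required for 50% inhibition of growth.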 The source made the active and inactive calls. Rule as the data show it: active = GI50 up to about 1.1 µM and inactive = higher.
# How the values were obtained:
# Assay in all cases: NCI anticancer screen, dose series, 48 h
# A498 = tested on: A498
# COLO 205 = tested on: COLO 205
# EKVX = tested on: EKVX
# HCT-116 = tested on: HCT-116
# HOP-62 = tested on: HOP-62
# HOP-92 = tested on: HOP-92
# HT-29 = tested on: HT-29
# IGROV-1 = tested on: IGROV-1
# K562 = tested on: K562
# MCF7 = tested on: MCF7
# NCI-H23 = tested on: NCI-H23
# NCI-H522 = tested on: NCI-H522
# OVCAR-3 = tested on: OVCAR-3
# OVCAR-5 = tested on: OVCAR-5
# OVCAR-8 = tested on: OVCAR-8
# PC-3 = tested on: PC-3
# SF-295 = tested on: SF-295
# SR = tested on: SR
# TK-10 = tested on: TK-10
# UACC-62 = tested on: UACC-62
SMILES,GI50 (A498),GI50 (COLO 205),GI50 (EKVX),GI50 (HCT-116),GI50 (HOP-62),GI50 (HOP-92),GI50 (HT-29),GI50 (IGROV-1),GI50 (K562),GI50 (MCF7),GI50 (NCI-H23),GI50 (NCI-H522),GI50 (OVCAR-3),GI50 (OVCAR-5),GI50 (OVCAR-8),GI50 (PC-3),GI50 (SF-295),GI50 (SR),GI50 (TK-10),GI50 (UACC-62)
Cn1ccnc1Sc1ccc(/C=N/NC(=O)c2ccccc2[N+](=O)[O-])cc1[N+](=O)[O-],58.9 µM (inactive),56.2 µM (inactive),40.9 µM (inactive),65.6 µM (inactive),> 100 µM (inactive),18 µM (inactive),35.6 µM (inactive),37.4 µM (inactive),40.5 µM (inactive),59.8 µM (inactive),58.6 µM (inactive),38.5 µM (inactive),98.9 µM (inactive),> 100 µM (inactive),> 100 µM (inactive),76 µM (inactive),83.8 µM (inactive),36.1 µM (inactive),65.3 µM (inactive),64.3 µM (inactive)
CCNC(=S)N/N=C(/C)c1cccc(/C(C)=N\NC(=S)NCC)n1,7.52 µM (inactive),1.08 µM (active),1.11 µM (active),0.367 µM (active),1.11 µM (active),1.69 µM (inactive),0.315 µM (active),1.24 µM (inactive),1.13 µM (inactive),0.689 µM (active),4.06 µM (inactive),1.15 µM (inactive),0.366 µM (active),0.873 µM (active),0.345 µM (active),0.614 µM (active),0.488 µM (active),0.184 µM (active),0.771 µM (active),1.09 µM (active)
COC(Cc1ccccc1)NC(C)=O (stereo not given),> 100 µM (inactive),> 100 µM (inactive),> 100 µM (inactive),> 100 µM (inactive),> 100 µM (inactive),> 100 µM (inactive),> 100 µM (inactive),> 100 µM (inactive),> 100 µM (inactive),> 100 µM (inactive),> 100 µM (inactive),> 100 µM (inactive),> 100 µM (inactive),> 100 µM (inactive),> 100 µM (inactive),> 100 µM (inactive),> 100 µM (inactive),> 100 µM (inactive),> 100 µM (inactive),> 100 µM (inactive)
C[C@H](CCC(=O)O)[C@H]1CC[C@H]2[C@@H]3[C@@H](O)C[C@@H]4C[C@H](O)CC[C@]4(C)[C@H]3CC[C@]12C,> 100 µM (inactive),> 100 µM (inactive),> 100 µM (inactive),61.7 µM (inactive),> 100 µM (inactive),> 100 µM (inactive),> 100 µM (inactive),> 100 µM (inactive),69.8 µM (inactive),86.7 µM (inactive),65.2 µM (inactive),> 100 µM (inactive),60.8 µM (inactive),> 100 µM (inactive),73.8 µM (inactive),45.4 µM (inactive),53.6 µM (inactive),47.8 µM (inactive),99.3 µM (inactive),76.2 µM (inactive)
COc1ccc(/C=C2\CCCc3ccccc3C2=O)cc1,0.104 µM (active),0.0904 µM (active),0.39 µM (active),0.244 µM (active),0.187 µM (active),0.893 µM (active),0.0849 µM (active),0.0573 µM (active),0.33 µM (active),1.27 µM (inactive),0.122 µM (active),< 0.0218 µM (active),0.0982 µM (active),0.605 µM (active),0.228 µM (active),0.321 µM (active),0.026 µM (active),0.452 µM (active),9.06 µM (inactive),0.0292 µM (active)
